Each structure is given as a SMILES string.

For one data set, the system named is ErPPK. Kind of data set: Effect of polyphenol derivatives on ErPPK activity. It counts as biochemical, unclassified Erysipelotrichaceae bacterium. Conditions: 0.25 mM. The text has this: FIG. 4 illustrates the effect of polyphenol derivatives on ErPPK. Data are mean SD (n=3), with significance indicated by p<0.05 using t-test. n.s., non-significance.
Considering the known inhibitory effect of aromatic phosphonates on PPK2 enzymes, we investigated the impact of polyphenols and polyphenol phosphates on ErPPK activity to evaluate their integration into a one-pot bi-enzymatic system. LUT was selected as the polyphenol target, based on its incomplete conversion in microbial systems due to its toxic nature.

The conditions of data set [1]: versus parent genistein; cited from earlier work.
The conditions of data set [2]: versus parent genistein; cited from earlier work. The source holds these as a separate data set.
The next data set has as its system ovariectomized rats. To be noted: comparable to estradiol and raloxifene, surpassed genistein; cited from earlier work.

In the case of `O=c1cc(-c2ccc(O)c(O)c2)oc2cc(O)cc(O)c12` [LUT, luteolin], the “inhibitory effect on ErPPK activity” value in the data set with ErPPK is given as “no significant inhibitory effect”.

`O=c1c(-c2ccc(O)cc2)coc2cc(OP(=O)(O)O)cc(O)c12` [Genistein 7-O-phosphate]: the solubility result in data set [1] is listed as “improved”. Further, the oral bioavailability entry in data set [2] is on record as “improved”. Moreover, the osteoprotective effects entry in the data set on ovariectomized rats is “improved”.

The values are drawn from patent US20240318212A1, “PHOSPHORYLATION OF PHENOLIC PHYTOCHEMICALS BY TWO ENZYMES COUPLED SYSTEM” (National Taiwan University, priority 2023, published 2024).
